ChEMBL document CHEMBL2046372, “Design and synthesis of pyrrolo[3,2-d]pyrimidine human epidermal growth factor receptor 2 (HER2)/epidermal growth factor receptor (EGFR) dual inhibitors: exploration of novel back-pocket binders” (J Med Chem, 2012)
Active and inactive are the calls of the source. The rule behind the calls is not given here.

What was measured:
[1] = target: T1, Receptor tyrosine-protein kinase erbB-2 (Homo sapiens, UniProt P04626); experiment: Inhibition of N-terminus peptide-tagged human recombinant HER2 expressed using baculovirus infection system using [gamma-33P]-ATP preincubated with compound for 5 mins measured after 10 mins by scintillation counting
T1 sequence (P04626 whole entry): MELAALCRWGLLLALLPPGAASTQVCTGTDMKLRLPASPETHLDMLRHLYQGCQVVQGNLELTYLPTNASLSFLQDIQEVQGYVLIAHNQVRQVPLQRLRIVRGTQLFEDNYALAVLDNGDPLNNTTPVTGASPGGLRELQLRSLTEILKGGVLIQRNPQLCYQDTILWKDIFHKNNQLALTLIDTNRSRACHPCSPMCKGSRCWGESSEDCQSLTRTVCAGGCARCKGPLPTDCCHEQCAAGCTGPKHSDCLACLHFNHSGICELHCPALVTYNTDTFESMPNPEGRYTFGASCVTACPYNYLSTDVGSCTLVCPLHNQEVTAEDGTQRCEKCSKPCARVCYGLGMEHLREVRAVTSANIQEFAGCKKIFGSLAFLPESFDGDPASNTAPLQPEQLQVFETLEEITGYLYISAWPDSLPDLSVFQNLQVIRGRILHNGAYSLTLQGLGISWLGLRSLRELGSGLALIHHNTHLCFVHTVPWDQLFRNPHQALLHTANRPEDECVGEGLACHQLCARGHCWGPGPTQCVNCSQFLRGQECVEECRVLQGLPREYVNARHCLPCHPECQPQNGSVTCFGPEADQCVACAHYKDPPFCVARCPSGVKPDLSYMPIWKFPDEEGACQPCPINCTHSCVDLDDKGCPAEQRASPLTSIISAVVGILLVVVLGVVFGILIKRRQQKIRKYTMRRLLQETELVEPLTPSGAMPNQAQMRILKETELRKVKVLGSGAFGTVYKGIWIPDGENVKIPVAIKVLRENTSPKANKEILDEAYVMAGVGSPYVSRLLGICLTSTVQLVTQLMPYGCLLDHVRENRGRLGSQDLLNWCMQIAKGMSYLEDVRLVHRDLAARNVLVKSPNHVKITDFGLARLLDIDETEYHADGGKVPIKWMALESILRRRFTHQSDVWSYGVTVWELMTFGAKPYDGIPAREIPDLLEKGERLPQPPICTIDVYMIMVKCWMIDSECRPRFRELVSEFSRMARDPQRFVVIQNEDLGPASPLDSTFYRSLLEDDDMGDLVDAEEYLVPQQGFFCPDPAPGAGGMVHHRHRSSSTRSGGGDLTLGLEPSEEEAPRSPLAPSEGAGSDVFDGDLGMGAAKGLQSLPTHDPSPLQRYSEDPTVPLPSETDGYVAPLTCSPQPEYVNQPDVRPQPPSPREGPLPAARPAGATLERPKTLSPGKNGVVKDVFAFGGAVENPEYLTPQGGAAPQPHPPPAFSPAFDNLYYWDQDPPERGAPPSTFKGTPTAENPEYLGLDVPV

[2] = target: Epidermal growth factor receptor (Homo sapiens, UniProt P00533); experiment: Inhibition of N-terminus peptide-tagged human recombinant EGFR expressed using baculovirus infection system using [gamma-33P]-ATP preincubated with compound for 5 mins measured after 10 mins by scintillation counting
Epidermal growth factor receptor, sequence (P00533 whole entry): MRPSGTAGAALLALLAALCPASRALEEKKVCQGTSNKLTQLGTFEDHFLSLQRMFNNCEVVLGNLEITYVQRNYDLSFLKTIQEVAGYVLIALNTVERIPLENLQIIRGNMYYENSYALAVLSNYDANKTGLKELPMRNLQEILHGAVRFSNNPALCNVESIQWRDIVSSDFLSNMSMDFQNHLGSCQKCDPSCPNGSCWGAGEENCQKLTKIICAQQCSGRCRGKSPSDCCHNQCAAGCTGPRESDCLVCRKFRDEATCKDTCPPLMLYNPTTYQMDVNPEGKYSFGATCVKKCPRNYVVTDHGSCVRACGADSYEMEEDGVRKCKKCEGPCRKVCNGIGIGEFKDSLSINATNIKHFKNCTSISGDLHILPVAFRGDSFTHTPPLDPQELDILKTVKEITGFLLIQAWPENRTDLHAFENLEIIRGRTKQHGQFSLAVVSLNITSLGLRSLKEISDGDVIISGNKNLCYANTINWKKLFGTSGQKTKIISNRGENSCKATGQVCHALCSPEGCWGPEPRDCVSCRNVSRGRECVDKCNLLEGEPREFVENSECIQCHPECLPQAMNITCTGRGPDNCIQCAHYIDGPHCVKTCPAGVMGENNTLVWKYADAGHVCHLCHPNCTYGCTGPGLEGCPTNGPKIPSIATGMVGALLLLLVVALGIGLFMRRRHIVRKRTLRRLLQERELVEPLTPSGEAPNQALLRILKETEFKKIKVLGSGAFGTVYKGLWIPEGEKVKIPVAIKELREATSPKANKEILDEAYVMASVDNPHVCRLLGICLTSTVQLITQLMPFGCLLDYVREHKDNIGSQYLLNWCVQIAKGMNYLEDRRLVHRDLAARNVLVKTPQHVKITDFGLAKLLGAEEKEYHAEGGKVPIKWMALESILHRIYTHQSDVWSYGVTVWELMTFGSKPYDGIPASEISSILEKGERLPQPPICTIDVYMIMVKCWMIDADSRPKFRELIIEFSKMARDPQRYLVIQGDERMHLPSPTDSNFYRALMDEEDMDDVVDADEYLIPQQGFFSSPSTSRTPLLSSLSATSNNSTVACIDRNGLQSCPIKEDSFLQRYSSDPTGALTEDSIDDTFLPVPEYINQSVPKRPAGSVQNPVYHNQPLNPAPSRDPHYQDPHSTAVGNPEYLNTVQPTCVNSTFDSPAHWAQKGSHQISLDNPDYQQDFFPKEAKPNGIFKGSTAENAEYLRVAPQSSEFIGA

[3] = target: T1, Receptor tyrosine-protein kinase erbB-2; experiment: Pseudo-irreversible inhibition of N-terminus peptide-tagged human recombinant HER2 expressed using baculovirus infection system using [gamma-33P]-ATP preincubated with compound for 5 mins at 10 times IC50 concentration measured after 10 mins by scintillation counting
BT-474 = experiment: Growth inhibition of human BT474 cells overexpressing HER2 gene after 5 days; type: functional; settings: BT-474, 120 h
[4] = Metabolic stability in mouse liver microsomes at 1 umol/L after 20 mins by HPLC analysis; type: ADME, Microsome; settings: read-out: Stability
[5] = Metabolic stability in human liver microsomes at 1 umol/L after 20 mins by HPLC analysis; type: ADME, Microsome; settings: read-out: Stability
CYP3A4 = CYP3A4 (Homo sapiens, UniProt P08684); experiment: Inhibition of CYP3A4 at 10 uM after 15 mins; type: ADME
CYP3A4, sequence (P08684 whole entry): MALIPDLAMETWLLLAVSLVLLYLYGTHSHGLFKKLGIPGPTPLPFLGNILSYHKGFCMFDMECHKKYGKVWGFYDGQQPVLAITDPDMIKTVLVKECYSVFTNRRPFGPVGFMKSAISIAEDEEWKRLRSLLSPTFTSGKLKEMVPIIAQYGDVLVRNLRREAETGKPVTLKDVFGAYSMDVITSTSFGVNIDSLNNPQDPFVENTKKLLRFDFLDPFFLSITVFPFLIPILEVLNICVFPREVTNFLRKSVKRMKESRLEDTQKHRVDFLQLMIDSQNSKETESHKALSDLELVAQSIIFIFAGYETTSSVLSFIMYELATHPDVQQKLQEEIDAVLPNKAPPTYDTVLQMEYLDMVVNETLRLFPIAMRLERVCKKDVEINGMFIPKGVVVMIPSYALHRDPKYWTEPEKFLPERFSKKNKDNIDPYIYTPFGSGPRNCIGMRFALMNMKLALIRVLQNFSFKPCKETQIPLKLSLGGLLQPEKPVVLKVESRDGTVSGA

Row | IC50 [1] [nM] | IC50 [2] [nM] | inhibition [3] | GI50 (BT-474) [nM] | microsomal CLint at 1 µM [4] [µL/min/mg] | microsomal CLint at 1 µM [5] [µL/min/mg] | inhibition at 0.25 h, 10 µM (CYP3A4) [%] | Structure (SMILES)
1 | 28 | 960 | inactive | 1350 | – | – | – | O=C1Cc2cc(Oc3ccc(Nc4ncnc5ccn(CCO)c45)cc3Cl)ccc2N1
2 | 2.1 | 36 | inactive | 164 | 106 | 219 | – | Cn1ncc2c(Oc3ccc(Nc4ncnc5ccn(CCO)c45)cc3Cl)cccc21
3 | 1.7 | 1.9 | Active | 5.5 | 123 | 114 | – | OCCn1ccc2ncnc(Nc3ccc(Oc4cccc5[nH]ncc45)c(Cl)c3)c21
4 | 130 | 2300 | inactive | 1880 | – | – | – | O=C1Cc2ccc(Oc3ccc(Nc4ncnc5ccn(CCO)c45)cc3Cl)cc2N1
5 | 1.6 | 3 | Active | 13 | 66 | 141 | – | O=C1Cc2c(cccc2Oc2ccc(Nc3ncnc4ccn(CCO)c34)cc2Cl)N1
6 | 2 | 5.5 | – | 8 | 76 | 113 | 49.9 | CC(C)(C(=O)NCCn1ccc2ncnc(Nc3ccc(Oc4cccc5sncc45)c(Cl)c3)c21)S(C)(=O)=O
7 | 2.5 | 3.1 | Active | 36 | – | 204 | – | OCCn1ccc2ncnc(Nc3ccc(Oc4cccc5[nH]ccc45)c(Cl)c3)c21
8 | – | 34 | – | – | – | – | – | OCCn1ccc2ncnc(Nc3ccc(Oc4cccc(C(F)(F)F)c4)c(Cl)c3)c21
9 | 6 | 8.8 | Active | 15 | 24 | 144 | – | OCCn1ccc2ncnc(Nc3ccc(Oc4cccc5sccc45)c(Cl)c3)c21
10 | 0.92 | 3 | – | 5.8 | 74 | 61 | 35 | O=C(NCCn1ccc2ncnc(Nc3ccc(Oc4cccc5sncc45)c(Cl)c3)c21)[C@@H]1CCCN1
11 | 2.5 | 21 | inactive | 768 | – | – | – | O=C1NCc2cccc(Oc3ccc(Nc4ncnc5ccn(CCO)c45)cc3Cl)c21
12 | 2.1 | 4.1 | Active | 3.6 | 142 | 129 | 47.2 | OCCn1ccc2ncnc(Nc3ccc(Oc4cccc5sncc45)c(Cl)c3)c21
13 | 1.3 | 7.8 | Active | 43 | – | – | – | O=C1NCc2ccc(Oc3ccc(Nc4ncnc5ccn(CCO)c45)cc3Cl)cc21
14 | 2.3 | 33 | – | 88 | – | – | – | CC(C)(C)NC(=O)c1cccc(Oc2ccc(Nc3ncnc4ccn(CCO)c34)cc2Cl)c1
15 | 3.3 | 7 | – | 8.6 | 88 | 113 | – | CC(C)(CO)C(=O)NCCn1ccc2ncnc(Nc3ccc(Oc4cccc5sncc45)c(Cl)c3)c21
16 | 6.1 | 21 | – | 9.2 | 108 | 94 | 33.5 | CC(C)(C)C(=O)NCCn1ccc2ncnc(Nc3ccc(Oc4cccc5sncc45)c(Cl)c3)c21
17 | 1.5 | – | Active | 73 | – | – | – | O=C1Cc2cccc(Oc3ccc(Nc4ncnc5ccn(CCO)c45)cc3Cl)c2N1
18 | 18 | 510 | inactive | 4080 | – | – | – | O=C1NCc2cc(Oc3ccc(Nc4ncnc5ccn(CCO)c45)cc3Cl)ccc21
19 | 150 | 890 | inactive | 3360 | – | – | – | O=C1NCc2c(Oc3ccc(Nc4ncnc5ccn(CCO)c45)cc3Cl)cccc21
20 | 1.6 | 2.9 | – | 4 | 100 | 133 | 57 | CC(=O)NCCn1ccc2ncnc(Nc3ccc(Oc4cccc5sncc45)c(Cl)c3)c21
21 | 2.2 | 7 | – | 9.4 | 145 | 117 | 62.6 | CC(C)(O)C(=O)NCCn1ccc2ncnc(Nc3ccc(Oc4cccc5sncc45)c(Cl)c3)c21
